Measurements taken from patent US20100285959A1, “HERBICIDAL MIXTURES” (priority 2006, published 2010).

What was measured:
corn (ZEAMD) [1] = test: Test 1 field trial, preemergence; format: in vivo, Zea mays ssp. indentata; conditions: g a.i./ha: Atrazine 1680, S-Metolachlor 1870
Excerpt: (§1) Corn seeds (hybrid ‘Pioneer 34N43’) were planted in mid spring season, 3.8 cm deep in a silt loam soil having 4.6% organic matter and a pH of 6. Plots were 10.7 m long by 1.5 m wide with rows spaced 76 cm apart. Seeds were spaced 18 cm apart within the rows. The field was managed using conventional tillage practices. […] Results are summarized in Table 1 and are the means of the three replicates. […] Colby's Equation (Colby, S. R. “Calculating Synergistic and Antagonistic Responses of Herbicide Combinations,” Weeds, 15(1), pp 20-22 (1967)) calculates the expected additive effect of herbicidal mixtures, and for two active ingredients is of the form:
(§2) Pa+b=Pa+Pb−(PaPb/100) • wherein Pa+b is the percentage effect of the mixture expected from additive contribution of the individual components, • Pa is the observed percentage effect of the first active ingredient at the same use rate as in the mixture, and • Pb is the observed percentage effect of the second active ingredient at the same use rate as in the mixture.

giant foxtail (SETFA) = test: Test 1 field trial, preemergence; format: in vivo, Setaria faberi; conditions: g a.i./ha: Atrazine 1680, S-Metolachlor 1870
Excerpt: as §1, §2

corn (ZEAMD) [2] = test: Test 5 field trial, postemergence; format: in vivo, Zea mays ssp. indentata; conditions: atrazine 1120, glufosinate 470 or glyphosate 1120 g a.i./ha alone
Excerpt: (§3) Corn seeds (hybrid ‘Pioneer 38H69’) were planted in mid spring season, 5.1 cm deep in a silty clay loam soil having 3% organic matter and a pH of 6.5. Plots were 9.1 m long by 3.0 m wide with rows spaced 76 cm apart. The field was managed using conventional tillage practices. […] All treatments included a surfactant except glufosinate treatments, both alone and in combination. […] Results are summarized in Table 5 and are the means of the three replicates.

common ragweed (AMBEL) = test: Test 5 field trial, postemergence; format: in vivo, Ambrosia artemisiifolia; conditions: atrazine 1120, glufosinate 470 or glyphosate 1120 g a.i./ha alone
Excerpt: as §3

[3] = tested on: common lambsquarters (CHEAL); test: Test 5 field trial, postemergence; format: in vivo, Chenopodium album; conditions: atrazine 1120, glufosinate 470 or glyphosate 1120 g a.i./ha alone
Excerpt: as §3

yellow foxtail (SETLU) [4] = test: Test 5 field trial, postemergence; format: in vivo, Setaria glauca; conditions: atrazine 1120, glufosinate 470 or glyphosate 1120 g a.i./ha alone
Excerpt: as §3

[5] = tested on: common lambsquarters (CHEAL); test: Test 6 field trial, postemergence; format: in vivo, Chenopodium album; conditions: 1120 g a.i./ha
Excerpt: (§4) Corn seeds (hybrid ‘Pioneer 35Y62’) were planted in mid spring season, 3.8 cm deep in a silt loam soil having 4% organic matter and a pH of 5.8. Plots were 10.7 m long by 1.5 m wide with rows spaced 76 cm apart. Seeds were spaced 18 cm apart within the rows. The field was managed using conventional tillage practices. […] All treatments included a surfactant except glufosinate treatments, both alone and in combination. […] Results are summarized in Table 6 and are the means of the three replicates.

yellow foxtail (SETLU) [6] = test: Test 6 field trial, postemergence; format: in vivo, Setaria glauca; conditions: 1120 g a.i./ha
Excerpt: as §4

corn (ZEAMD) [7] = test: Test 8 field trial, preemergence; format: in vivo, Zea mays ssp. indentata; conditions: g a.i./ha: Cpd 2 100, Atrazine 1680, S-Metolachlor 1870
Excerpt: (§5) Corn seeds (hybrid ‘Pioneer 31G96’) were planted in mid spring season, 3.8 cm deep in a clay loam soil having 2% organic matter and a pH of 6.6. Plots were 6.1 m long by 3.0 m wide with rows spaced 76 cm apart. Seeds were spaced 15 cm apart within the rows. The field was managed using conventional tillage practices. […] A few of the weed species could not be evaluated at every timing. […] Results are the means of the three replicates.

redroot pigweed (AMARE) = test: Test 8 field trial, preemergence; format: in vivo, Amaranthus retroflexus; conditions: 56 DAA; g a.i./ha: Cpd 2 100, Atrazine 1680, S-Metolachlor 1870
Excerpt: as §5

jimsonweed (DATST) = test: Test 8 field trial, preemergence; format: in vivo, Datura stramonium; conditions: g a.i./ha: Cpd 2 100, Atrazine 1680, S-Metolachlor 1870
Excerpt: as §5

southern sandbur (CCHEC) = test: Test 11 field trial, preemergence; format: in vivo, Cenchrus echinatus; design: scale not given here; conditions: atrazine 1500 or metolachlor 2500 g a.i./ha alone
Excerpt: (§6) Corn seeds (hybrid ‘Pioneer 3041’) were planted in mid spring season, 5 cm deep in a clay soil having 2.6% organic matter and a pH of 5.6. Plots were 8 m long by 1.5 m wide with rows spaced 80 cm apart. Seeds were spaced 15 cm apart within the rows. The field was managed using conventional tillage practices. […] Treatments consisted of Compound 2 or
(§7) Goosegrass was not evaluated 16 or 91 days after application.

[8] = tested on: tropical spiderwort (COMBE); test: Test 11 field trial, preemergence; format: in vivo, Commelina benghalensis; design: scale not given here; conditions: atrazine 1500 or metolachlor 2500 g a.i./ha alone
Excerpt: as §6, §7

[9] = tested on: Ipomoea grandiflora (IPOGF); test: Test 11 field trial, preemergence; format: in vivo
Excerpt: as §6, §7

CCNc1nc(Cl)nc(NC(C)C)n1 [Atrazine, atrazine, reference compound]
ZEAMD Obs (corn (ZEAMD) [1]; 28 DAA): 0 | ZEAMD Obs (corn (ZEAMD) [1]; 56 DAA): 0 | SETFA Obs (giant foxtail (SETFA); 28 DAA): 93 | SETFA Obs (giant foxtail (SETFA); 56 DAA): 0 | ZEAMD Obs (corn (ZEAMD) [2]; 16 DAA): 0% | ZEAMD Obs (corn (ZEAMD) [2]; 31 DAA): 0% | AMBEL Obs (common ragweed (AMBEL); 16 DAA): 45% | AMBEL Obs (common ragweed (AMBEL); 31 DAA): 30% | CHEAL Obs ([3]; 16 DAA): 79% | CHEAL Obs ([3]; 31 DAA): 70% | SETLU Obs (yellow foxtail (SETLU) [4]; 16 DAA): 0% | SETLU Obs (yellow foxtail (SETLU) [4]; 31 DAA): 0% | CHEAL Obs ([5]; 14 DAA): 100% | CHEAL Obs ([5]; 28 DAA): 100% | SETLU Obs (yellow foxtail (SETLU) [6]; 14 DAA): 0% | SETLU Obs (yellow foxtail (SETLU) [6]; 28 DAA): 0% | ZEAMD Obs (corn (ZEAMD) [7]; 19 DAA): 5% | ZEAMD Obs (corn (ZEAMD) [7]; 29 DAA): 2% | ZEAMD Obs (corn (ZEAMD) [7]; 56 DAA): 3% | AMARE Obs (redroot pigweed (AMARE)): 100% | DATST Obs (jimsonweed (DATST); 19 DAA): 53% | DATST Obs (jimsonweed (DATST); 29 DAA): 100% | DATST Obs (jimsonweed (DATST); 56 DAA): 100% | CCHEC Obs (southern sandbur (CCHEC); 16 DAA): 60 | CCHEC Obs (southern sandbur (CCHEC); 30 DAA): 40 | CCHEC Obs (southern sandbur (CCHEC); 44 DAA): 40 | CCHEC Obs (southern sandbur (CCHEC); 62 DAA): 0 | CCHEC Obs (southern sandbur (CCHEC); 91 DAA): 0 | COMBE Obs ([8]; 16 DAA): 99 | COMBE Obs ([8]; 30 DAA): 100 | COMBE Obs ([8]; 44 DAA): 100 | COMBE Obs ([8]; 62 DAA): 97 | COMBE Obs ([8]; 91 DAA): 95 | IPOGF Obs ([9]; 16 DAA, atrazine 1500 or metolachlor 2500 g a.i./ha alone): 97 | IPOGF Obs ([9]; 30 DAA, atrazine 1500 or metolachlor 2500 g a.i./ha alone): 97 | IPOGF Obs ([9]; 44 DAA, atrazine 1500 or metolachlor 2500 g a.i./ha alone): 70 | IPOGF Obs ([9]; 62 DAA, 1500 g a.i./ha, scale 0 to 100): 50 | IPOGF Obs ([9]; 91 DAA, 1500 g a.i./ha, scale 0 to 100): 40
